In patent US5095038A, “Carbocyclic compounds useful as leukotriene antagonists” (ICI Americas Inc., priority 1989, dated 1992):

Biological target: T1, LTD4 /E4 receptors (Cavia porcellus, UniProt Q2NNR5)
T1 construct: membrane fractions, containing the LTD4 /E4 receptors, are prepared from guinea-pig lung parenchyma; from tissue; host or cells: guinea-pig lung parenchyma membrane fractions
T1 sequence (Q2NNR5 1-340): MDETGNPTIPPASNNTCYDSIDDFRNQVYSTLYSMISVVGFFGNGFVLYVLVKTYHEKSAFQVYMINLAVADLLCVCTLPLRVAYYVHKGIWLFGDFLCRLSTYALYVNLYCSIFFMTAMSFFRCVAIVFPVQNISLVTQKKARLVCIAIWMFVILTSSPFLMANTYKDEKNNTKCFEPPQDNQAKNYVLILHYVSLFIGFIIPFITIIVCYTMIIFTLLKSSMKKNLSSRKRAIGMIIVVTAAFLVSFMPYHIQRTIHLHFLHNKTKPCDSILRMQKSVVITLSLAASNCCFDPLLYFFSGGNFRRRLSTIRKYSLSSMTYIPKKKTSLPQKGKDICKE
Test: receptor-ligand binding assay (3H-LTD4)
Conditions: membrane fractions from guinea-pig lung parenchyma, 1nM 3H-LTD4, 30 minutes at 22° C.; Ki from IC50 by Cheng-Prusoff
Method: According to this procedure, membrane fractions, containing the LTD4 /E4 receptors, are prepared from guinea-pig lung parenchyma and incubated for 30 minutes at 22° C. with 1nM ^3 H-LTD4 in the absence or presence of tested antagonist. Specific binding, determined under conditions that prevent enzymatic metabolism of ^3 H-LTD4, is the net result of total ^3 H-LTD4 binding minus nonspecific binding determined in the presence of 1-2000 fold excess unlabelled LTD . Each assay is done in duplicate and results (Ki values) are typically a mean of several such determinations in individual receptor batches.
The % inhibition by a tested antagonist, relative to control binding (vehicle alone), is expressed as a fraction of log[antagonist] concentration (in molar units) and the half-maximal inhibition (IC50) determined by computerized non-linear least-square analysis. The binding constant (Ki) is then calculated from IC50 by the Cheng-Prusoff equation: [formula] where [L] is ^3 H-LTD4 concentraton and Kd is the affinity constant of LTD4 to this receptor, determined separately for each batch. (Biochem. Pharmacol. 22: 3099-3108, 1973).

A Ki of 3.16 nM was found for `CCC(C)CNC(=O)c1ccc2cccc(Cc3ccc(C(=O)NS(=O)(=O)c4ccccc4C)cc3OC)c2c1` (stereo not shown) [Example 10, 3-Methoxy-4-[7-(2-methylbutylcarbamoyl)naphth-1-ylmethyl]-N-(2-methylphenylsulfonyl)benzamide] in this work.
